Data reported in article PMC9586926, “An efflux-susceptible antibiotic-adjuvant with systemic efficacy against mouse infections” (Scientific Reports, 2022).
Where a SMILES comes first, the peptide text is derived from it. [ ]: non-standard residue; d: D form. The star is where a group is joined. 12Ado = NCCCCCCCCCCCC(=O)O; Decanoyl = CCCCCCCCCC(=O)*; Dab = NCC[C@H](N)C(=O)O

Tests used:
[1] = Acute toxicity, maximal tolerated dose; type: in vivo, mice; details: S.C., up to 40 mg/kg, seven-day monitoring
Description: The study is reported in accordance with ARRIVE guidelines.
The maximal tolerated dose (MTD) was determined after sub-cutaneous (S.C.) administration of lipopeptides solutions (0.2 ml). Mice (N = 3 per group) were monitored for up to 7 days and their physiological condition was scored on a scale of 1 to 6, in which a score of 1 indicates no apparent signs of distress, and a score of 6 signifies severe distress necessitating the mice immediate euthanasia.

E. coli 25922 [2] = assay: Outer membrane permeabilization, NPN fluorescence; type: cell-based, Escherichia coli
Description: Lipopeptides ability to permeabilize the OM was evaluated using fluorescent measurements of N-phenyl-1-naphthylamine (NPN)[67]. 200 µl of an over-night culture were diluted into 10 ml of fresh LB medium and incubated at 37 °C with shaking until reaching O.D.600 nm = 0.5. The culture was then centrifuged at 10,000 RCF for 3 min, the supernatant aspirated, and the pellet resuspended in equal volume of 5 mM HEPES containing 5 mM glucose (pH = 7.2). This suspension was then mixed with NPN (5 mM in acetone) to reach a final NPN concentration of 10 µM. Then, 190 µl of this mixture were dispensed into black microtiter plates, mixed with 10 µl of HEPES containing serial twofold dilutions of lipopeptides and fluorescence (excitation: 360 nm; emission: 460 nm) was recorded immediately for up to 10 min at 37 °C with shaking[29] (BioTek Instruments Synergy HT; Winooski, VT, USA). In a modified version of this assay, in which efflux was inhibited, bacteria (similarly prepared) were incubated with the lipopeptides in presence or absence of 100 µM CCCP for 5 min. Samples were then twice centrifuged at 10,000 RCF for 3 min, the supernatant aspirated, and the pellet resuspended in equal volume of 5 mM HEPES containing 20 mM glucose (pH = 7.2), so as to re-energize the efflux machinery. NPN was then added (final concentration of 10 µM) and fluorescence was recorded immediately thereafter.

RAW 264.7 = assay: Cytotoxicity, Alamar blue; type: cell-based, murine; details: 24 h incubation, read-out: IC50 RAW 264.7 (50% inhibition of cells respiration)
Description: (§1) Cell lines used in this study included murine RAW 264.7 macrophages and human embryonic kidney HEK-293FT cells (ATCC, Biological Industries, Beit Haemek, Israel). Cells were grown in Dulbecco’s modified eagle medium (DMEM) containing […] glucose, L-glutamine, sodium bicarbonate and sodium pyruvate, supplemented with 10% fetal bovine serum and pen-strep, at 37 °C and 5% CO2.
(§2) Lipopeptides cytotoxicity was determined using fluorescent measurements of reduced resazurin. 2 × 10^4 cells were first cultured in 96-well plates over-night (final volume of 100 µl) at 37 °C and 5% CO2. Then, the medium was removed and cells were incubated for an additional 24 h with serial twofold dilutions of the lipopeptides in growth medium. Then, 10 µl of Alamar blue were added and plates were incubated for 3 h, after which fluorescence (excitation: 530 nm; emission: 590 nm) of the reduced resazurin was recorded (BioTek Instruments Synergy HT; Winooski, VT, USA).

P. aeruginosa = assay: MIC, broth microdilution; type: cell-based, Pseudomonas aeruginosa; details: broth microdilution in LB, 18–24 h, 37 °C; n = 3 strains
From the text: Bacteria used in this study consisted of standard American Type Culture Collection (ATCC; Biological Industries, Beit Haemek, Israel) strains, clinically isolated (CI; Sourasky Medical Center, Tel Aviv, Israel) strains, as well as isogenic mutant strains. Gram-negative bacteria included Acinetobacter baumannii ATCC 19606; Escherichia coli ATCC 25922, 35218, CFT073, CI 14384, 16327, and the isogenic pair Ag100 (wild-type) and its efflux deficient mutant Ag100a (ΔacrAB); Klebsiella pneumoniae CI 1287, 224; Pseudomonas aeruginosa ATCC 27853, CI 1278, 8634; Salmonella enterica serovar Typhimurium ATCC 14028 (wild-type) and its isogenic efflux deficient mutant ΔacrAB. Bacteria were grown in Luria–Bertani broth (LB; 5 g/l NaCl, 5 g/l yeast extract, 10 g/l tryptone; pH = 7.0) at 37 °C with shaking. Over-night cultures were diluted 10-folds into fresh growth-medium and incubated at 37 °C with shaking until reaching mid-logarithmic phase. Then, bacterial concentrations were adjusted using O.D.600 nm measurements, and bacteria were subjected to the experimental procedures listed herein.
MIC was determined according to the broth microdilution method: antimicrobials were subjected to serial twofold dilutions in LB medium, and incubated with 5 × 10^5 CFU/ml of bacteria (final volume of 200 µl) for 18–24 h at 37 °C. Then, O.D.620 nm was measured (BioTek Instruments Synergy HT; Winooski, VT, USA), and the MIC was defined as the lowest antimicrobial concentration for which no increase in O.D.620 nm was evident, compared to the untreated control.

E. coli 25922 [3] = assay: Growth / time-kill kinetics; type: cell-based, Escherichia coli; details: 10 µM C10BBc12B, 1 µg/ml erythromycin or 20 ng/ml rifampin alone
Description: Antimicrobials mode of action was determined according to the rate of bacterial killing. Varying concentrations of lipopeptides, antibiotics and combinations thereof were mixed in LB medium with 5 × 10^5 CFU/ml of bacteria (final volume of 1 ml) and incubated at 37 °C with shaking. At the designated time-points aliquots were serially tenfold diluted in saline, plated on LB agar, and incubated over-night at 37 °C for enumeration.

HEK-293FT = assay: Cytotoxicity, Alamar blue; type: cell-based, human; details: 24 h incubation, read-out: IC50 HEK-293FT (50% inhibition of cells respiration)
Description: as §1, §2

CCCCCCCCCC(=O)N[C@@H](CCN)C(=O)N[C@@H](CCN)C(=O)NCCCCCCCCCCCC(=O)N[C@@H](CCN)C(N)=O [C10BBc12B, decanoyl-bis.diaminobutyrate-aminododecanoyl-diaminobutyrate-amide] (Decanoyl-[Dab][Dab][12Ado][Dab]-NH2)
signs of distress [1]: no apparent physiological signs of distress
reduction of NPN fluorescence by 10 mM MgCl2 (E. coli 25922 [2]): almost complete
IC50 (RAW 264.7): > 50 µM
MIC P. aeruginosa (n=3) (P. aeruginosa): ≥ 50 µM
effect on bacterial proliferation, individual agent (E. coli 25922 [3]): unable to significantly alter bacterial proliferation
IC50 (HEK-293FT): > 50 µM
